The target in one assay is T1, human 5-HT2A receptor (Homo sapiens, UniProt P28223).
T1 construct: expressed in transfected cells
The experiment in a line: Test A: binding to human recombinant 5-HT2A serotonin receptor, [3H]-ketanserin displacement. As to conditions: membranes from CHO-K1 cells expressing human 5-HT2A; 0.5 nM [3H]-ketanserin; 1 hour at 25° C.; read-out: 5-HT2A (pKi) (converted). The method, then: In particular, binding to the human 5-HT2A serotonin receptor was performed using, as starting material, a preparation of membranes from stable recombinant CHO-K1 cell line expressing the human 5-HT2A receptor.
The non-specific binding was measured in the presence of 1 μM mianserin. The assay was conducted in Tris-HCl 50 mM buffer (pH 7.4 at 37° C.), with incubation for 1 hour at 25° C. The test compounds were dissolved in DMSO, then diluted in buffer (final DMSO concentration 0.01%) and plated on 96-well plates. The compounds were tested in duplicate in an 8-points concentration response curve (in a Log scale ranging from 10^−12 to 10^−5 M).
After incubation, the membranes were filtered on glass-fibre filters (GF/B) (Unifilter, Packard) treated with 0.5% polyethyleneimine. Then the filters were washed with buffer solution and oven-dried for 30 minutes at 45° C. The scintillation liquid was added to each well, and at least 16 hours later the radioactivity was measured for 1 minute using a TopCount (Packard).
The IC50 values for each compound were calculated using non-linear regression analysis (GraphPad PRISM software) and the inhibition constants Ki were determined using the equation described by Cheng Y. and Prussof W. H. (1973) “Relationship between the inhibition constant (Ki) and the concentration of inhibitor which causes 50 percent inhibition (I50) of an enzyme reaction.” Biochem. Pharmacol. 22: 3099-3108.

The target of another assay is T2, human 5-HT2C receptor (Homo sapiens, UniProt P28335).
T2 construct: expressed in transfected cells
T2 sequence (P28335 33-458): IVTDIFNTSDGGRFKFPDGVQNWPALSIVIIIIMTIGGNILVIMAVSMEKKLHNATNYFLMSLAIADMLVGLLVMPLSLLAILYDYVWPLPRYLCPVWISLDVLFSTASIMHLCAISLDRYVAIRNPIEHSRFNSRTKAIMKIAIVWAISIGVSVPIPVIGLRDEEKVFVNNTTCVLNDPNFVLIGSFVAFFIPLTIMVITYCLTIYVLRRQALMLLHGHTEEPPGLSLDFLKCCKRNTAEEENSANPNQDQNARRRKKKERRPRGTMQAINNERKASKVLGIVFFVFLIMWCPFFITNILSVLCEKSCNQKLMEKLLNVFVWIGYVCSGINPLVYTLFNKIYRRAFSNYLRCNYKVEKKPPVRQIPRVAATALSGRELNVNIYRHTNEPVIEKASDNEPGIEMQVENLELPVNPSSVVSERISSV
In words: Test B: binding to human 5-HT2C serotonin receptor, [3H]-mesulergine displacement. As to conditions: membranes from CHO-K1 cells expressing human 5-HT2C; 1 nM [3H]-mesulergine; 1 hour at 25° C.; read-out: (h)5-HT2c (pKi) (converted). The method, then:
69: 1449-1458. In particular, binding to the human serotonin 5-HT2C receptor was performed using, as starting material, a preparation of membranes from stable recombinant CHO-K1 cell line expressing the human 5-HT2C receptor. […] The non-specific binding was measured in the presence of 1 μM mianserin. The assay was conducted in Tris-HCl 50 mM buffer (pH 7.4 at 37° C.), 0.1% Ascorbic Acid, 10 μM Pargyline, with incubation for 1 hour at 25° C. The test compounds were dissolved in DMSO, then diluted in buffer (final DMSO concentration 0.01%) and plated on 96-well plates The compounds were tested in duplicate in an 8-points concentration response curve (in a Log scale ranging from 10^−12 to 10^−5 M). SB 242084 was used as reference compound. […] Then the filters were washed with buffer solution and oven-dried for 30 minutes at 45° C. The scintillation liquid was added to each well, and at least 16 hours later the radioactivity was measured for 1 minute using a TopCount (Packard). The IC50 values for each compound were calculated using non-linear regression analysis (GraphPad PRISM software) and the inhibition constants Ki were determined using the equation described by Cheng Y. and Prussof W. H. […] Pharmacol. 22: 3099-3108.

Another assay concerns serotoninergic system. The experiment in a line: Test C: 5-HTP-induced head twitch test in mice. The assay is classed as in vivo, mouse. As to conditions: male CD-1 mice; 5 mg/kg intraperitoneally; 5-HTP 300 mg/kg i.p. 30 min later; counted 24 to 26 minutes after 5-HTP. How it is done: The interactions of the compounds of formula (I) according to the present invention with the serotoninergic system was tested following the “head twitch” model in the mouse, according to the standard methodology described by Sztanke K., Fidecka S., Kedzierska E., Karczmarzyk Z., Pihlaja K., Matosiuk D. (2005) in “Antionociceptive activity of new imidazole carbonyl derivatives. Part 4. Synthesis and pharmacological activity of 8-aryl-3,4-dioxo-2H,8H-6,7-dihydrimidazo[2,1c][1,2,4]triazine.” Eur. J. Med. Chem. 40: 127-134, and in Corne S. J., Pickering R. W., Warner B. T. (1963) “A method for assessing the effects of drugs on the central actions of 5-hydroxytryptamine.” Br. J. Pharmacol. Chemother. 20: 106-120.
The “head twitches” are a characteristic shaking of the head induced in the animals by the increase in central levels of serotonin.
Male CD-1 mice weighing 25-30 g were used for the “head twitch” test. Molecules were suspended in a 0.5% methylcellulose aqueous solution (MTC) and the animals were treated intraperitoneally with the test compounds at the dose of 5 mg/kg (10 ml/kg body weight). The control animals received the vehicle alone (MTC) by the same route. Head twitches, considered as a specific behavioural model for the activation of serotoninergic neurons, were induced by an intraperitoneal administration of 5-hydroxytryptophan (5-HTP), a precursor of serotonin (5-HT), dissolved in a 0.5% MTC solution and given at 300 mg/kg 30 min following drug administration.
The number of head twitches, which constitutes the parameter for assessment of the serotoninergic response, was measured in the interval from 24 to 26 minutes after administration of 5-HTP.

Molecules are shown by their SMILES. Counter-ions that a name gives are not always drawn.

T1 sequence (P28223 whole entry): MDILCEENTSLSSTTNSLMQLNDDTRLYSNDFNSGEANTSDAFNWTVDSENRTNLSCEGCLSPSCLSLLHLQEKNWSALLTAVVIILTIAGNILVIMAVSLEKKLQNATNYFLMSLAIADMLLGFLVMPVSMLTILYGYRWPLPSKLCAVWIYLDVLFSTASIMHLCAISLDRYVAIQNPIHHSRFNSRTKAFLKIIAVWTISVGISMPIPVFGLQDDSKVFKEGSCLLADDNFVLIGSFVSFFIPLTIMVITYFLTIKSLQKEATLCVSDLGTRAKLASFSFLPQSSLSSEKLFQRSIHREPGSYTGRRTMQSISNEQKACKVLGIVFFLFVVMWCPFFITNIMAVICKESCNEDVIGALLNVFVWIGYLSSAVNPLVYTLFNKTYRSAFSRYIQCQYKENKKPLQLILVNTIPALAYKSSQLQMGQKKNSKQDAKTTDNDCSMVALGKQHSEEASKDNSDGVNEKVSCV

Regarding `Cl.O=C1c2c3ccccc3nn2CCN1CC1CCN(CCc2ccc(F)cc2)CC1` [Compound 1, 2-({1-[2-(4-fluorophenyl)ethyl]piperidin-4-yl}methyl)-3,4-dihydropyrazino[1,2-b]indazol-1(2H)-one hydrochloride], the figures for the Ki at human 5-HT2A receptor and on human 5-HT2C receptor were 0.0195 µM and 1.7 µM, respectively. The “% INHIBITION (number of head twitches vs vehicle treated group)” value (from here on “% INHIBITION”) with serotoninergic system is on record as 50%.

Take `O=C1c2c3ccccc3nn2CCN1CC1CCCN(CCc2ccc(F)cc2)C1` (stereo not shown) [Compound 2, 2-({1-[2-(4-fluorophenyl)ethyl]piperidin-3-yl}methyl)-3,4-dihydropyrazino[1,2-b]indazol-1(2H)-one]: the Ki at human 5-HT2A receptor is 1.15 µM.

`O=C1c2c3ccccc3nn2CCN1CC1CCCN(CCc2ccccc2F)C1` (stereo not shown) [Compound 5, 2-({1-[2-(2-fluorophenyl)ethyl]piperidin-3-yl}methyl)-3,4-dihydropyrazino[1,2-b]indazol-1(2H)-one hydrochloride]: on human 5-HT2A receptor, the Ki is 0.692 µM.

As for `O=C1c2c3ccccc3nn2CCN1CC1CCN(CCc2ccccc2F)CC1` [Compound 8, 2-({1-[2-(2-fluorophenyl)ethyl]piperidin-4-yl}methyl)-3,4-dihydropyrazino[1,2-b]indazol-1(2H)-one], at human 5-HT2A receptor, the Ki was 0.00182 µM. Moreover, in the assay with serotoninergic system, the “% INHIBITION” value is 70%.

`O=C1c2c3ccccc3nn2CCCN1CC1CCCN(CCc2ccc(F)cc2)C1` (stereo not shown) [Compound 10, 2-({1-[2-(4-fluorophenyl)ethyl]piperidin-3-yl}methyl)-2,3,4,5-tetrahydro-1H-[1,4]diazepino[1,2-b]indazol-1-one dihydrochloride]: the Ki at human 5-HT2A receptor was 0.275 µM.

For the compound `O=C1c2c3ccccc3nn2CCCN1CC1CCCN(CCc2ccccc2F)C1` (stereo not shown) [Compound 13, 2-({1-[2-(2-fluorophenyl)ethyl]piperidin-3-yl}methyl)-2,3,4,5-tetrahydro-1H-[1,4]diazepino[1,2-b]indazol-1-one dihydrochloride], the Ki on human 5-HT2A receptor is 0.257 µM.

Take `Cl.O=C1c2c3ccccc3nn2CCCN1CC1CCN(CCc2ccc(F)cc2)CC1` [Compound 16, 2-({1-[2-(4-fluorophenyl)ethyl]piperidin-4-yl}methyl)-2,3,4,5-tetrahydro-1H-[1,4]diazepino[1,2-b]indazol-1-one hydrochloride]: the results for the Ki on human 5-HT2A receptor and at human 5-HT2C receptor were 0.00724 µM and > 10 µM, respectively. In the assay with serotoninergic system, the “% INHIBITION” value was determined as 56%.

For the compound `O=C1c2c3c(nn2CCN1CC1CCN(CCc2ccc(F)cc2)CC1)CCCC3` [Compound 17, 2-({1-[2-(4-fluorophenyl)ethyl]piperidin-4-yl}methyl)-3,4,7,8,9,10-esahydropyrazino[1,2-b]indazol-1(2H)-one hydrochloride], the Ki on human 5-HT2A receptor is 0.0295 µM; at human 5-HT2C receptor, 7.41 µM. Moreover, the “% INHIBITION” value in the assay with serotoninergic system is recorded as 32%.

As to `O=C1c2c3ccccc3nn2CCN1CC1CCN(CCc2ccccc2)CC1` [Compound 20, 2-[(1-phenethylpiperidin-4-yl)methyl]-3,4-dihydropyrazino[1,2-b]indazol-1(2H)-one hydrochloride], the Ki on human 5-HT2A receptor is 0.0166 µM.

As to `O=C1c2c3ccccc3nn2CCCN1CC1CCN(CCc2ccccc2)CC1` [Compound 22, 2-[(1-phenethylpiperidin-4-yl)methyl]-2,3,4,5-tetrahydro-1H-[1,4]diazepino[1,2-b]indazol-1-one], the Ki at human 5-HT2A receptor is 0.0209 µM.

For the compound `O=C1c2c3ccccc3nn2CCN1CCCN1CCC(c2ccccc2)CC1` [Compound 28, 2-[3-(4-phenylpiperidin-1-yl)propyl]-3,4-dihydropyrazino[1,2-b]indazol-1(2H)-one hydrochloride], the values for the Ki at human 5-HT2A receptor and on human 5-HT2C receptor were 0.0741 µM and > 10 µM, respectively.

With `O=C1c2c3ccccc3nn2CCCN1CCCN1CCC(c2ccccc2)CC1` [Compound 31, 2-[3-(4-phenylpiperidin-1-yl)propyl]-2,3,4,5-tetrahydro-1H-[1,4]diazepino[1,2-b]indazol-1-one hydrochloride], the Ki on human 5-HT2A receptor was 0.0457 µM; at human 5-HT2C receptor, > 10 µM.

Consider `Cc1cc2c(cc1Cl)N(C(=O)Nc1ccc(Oc3cccnc3C)nc1)CC2` [SB 242084, reference compound], for which the Ki at human 5-HT2C receptor was 0.000468 µM.

The record behind these values is patent US9655906B2, “Tricyclic indazole compound, method of preparation and pharmaceutical composition containing it” (AZIENDE CHIMICHE RIUNITE ANGELINI FRANCESCO A.C.R.A.F S.p.A., priority 2010, dated 2017).
